Data set [1] has as its target Sodium-dependent dopamine transporter (Homo sapiens, UniProt Q01959). Briefly: DRUGMATRIX: Dopamine Transporter radioligand binding (ligand: [125I] RTI-55). It counts as cell membranes, CHO-K1, Membrane. Conditions: cho-k1; Not Active = under 50% inhibition at 10 µM.
Data set [2] concerns the target T1, Endothelin-1 receptor (Homo sapiens, UniProt P25101). Further: in other assays of this panel Not Active means under 50% inhibition at 10 µM.
T1 sequence (P25101 whole entry): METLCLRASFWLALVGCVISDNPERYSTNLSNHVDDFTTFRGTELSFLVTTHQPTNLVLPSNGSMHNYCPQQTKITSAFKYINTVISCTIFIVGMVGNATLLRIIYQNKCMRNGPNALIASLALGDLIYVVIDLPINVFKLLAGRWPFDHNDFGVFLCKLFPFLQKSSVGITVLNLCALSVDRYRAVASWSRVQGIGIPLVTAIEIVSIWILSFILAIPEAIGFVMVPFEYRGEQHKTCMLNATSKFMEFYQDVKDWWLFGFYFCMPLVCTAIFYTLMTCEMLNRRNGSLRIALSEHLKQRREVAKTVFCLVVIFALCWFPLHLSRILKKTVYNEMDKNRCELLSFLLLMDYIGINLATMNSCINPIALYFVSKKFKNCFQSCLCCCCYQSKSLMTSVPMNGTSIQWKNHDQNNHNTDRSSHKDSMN
In kind it is cell membranes, CHO-K1, Membrane. Conditions: cho-k1.

Data set [3] concerns the target cGMP-specific 3',5'-cyclic phosphodiesterase (Homo sapiens, UniProt O76074). Briefly: DRUGMATRIX: Phosphodiesterase PDE5 enzyme inhibition (substrate: [3H]cGMP + cGMP). It counts as tissue-based. The note with it: platelet; Not Active = under 50% inhibition at 10 µM.
Data set [4] has as its target Protein phosphatase 3 catalytic subunit alpha (Homo sapiens, UniProt Q08209). Further details: species or system Escherichia coli.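 Further: inhibition of calcineurin (PP2B) enzyme activity, measured with DiFMUP as the substrate; in other assays of this panel Not Active means under 50% inhibition at 10 µM.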
Data set [5] concerns the target T2, Polyunsaturated fatty acid lipoxygenase ALOX15 (Oryctolagus cuniculus, UniProt P12530).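 Further: inhibition of 15-lipoxygenase enzyme activity measured with linoleic acid as the substrate; in other assays of this panel Not Active means under 50% inhibition at 10 µM.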
T2 sequence (P12530 whole entry): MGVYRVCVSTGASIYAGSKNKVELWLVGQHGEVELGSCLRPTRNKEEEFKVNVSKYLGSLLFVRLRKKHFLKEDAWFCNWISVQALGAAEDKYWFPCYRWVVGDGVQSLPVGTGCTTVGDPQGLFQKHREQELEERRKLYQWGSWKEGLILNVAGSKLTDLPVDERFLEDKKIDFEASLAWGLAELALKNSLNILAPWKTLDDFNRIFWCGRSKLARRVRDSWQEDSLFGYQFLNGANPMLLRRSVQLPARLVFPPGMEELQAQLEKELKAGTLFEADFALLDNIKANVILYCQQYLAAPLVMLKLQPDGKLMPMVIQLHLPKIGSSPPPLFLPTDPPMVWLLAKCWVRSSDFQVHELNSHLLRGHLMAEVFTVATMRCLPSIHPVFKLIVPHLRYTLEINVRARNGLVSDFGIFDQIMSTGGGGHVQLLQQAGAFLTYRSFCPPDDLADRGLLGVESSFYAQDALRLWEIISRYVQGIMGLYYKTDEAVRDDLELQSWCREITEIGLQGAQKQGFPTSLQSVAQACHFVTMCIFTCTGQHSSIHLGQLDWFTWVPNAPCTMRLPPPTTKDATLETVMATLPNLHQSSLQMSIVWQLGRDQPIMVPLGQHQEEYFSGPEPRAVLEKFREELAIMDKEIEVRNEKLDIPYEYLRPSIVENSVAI
Put plainly: biochemical. It counts as tissue-based, Reticulocytes. Conditions: reticulocytes.

Data set [6] addresses Voltage-gated inwardly rectifying potassium channel KCNH2 (Homo sapiens, UniProt Q12809). Conditions: hek293.
Data set [7] addresses T3, 5-hydroxytryptamine receptor 2C (Homo sapiens, UniProt P28335).
T3 sequence (P28335 whole entry): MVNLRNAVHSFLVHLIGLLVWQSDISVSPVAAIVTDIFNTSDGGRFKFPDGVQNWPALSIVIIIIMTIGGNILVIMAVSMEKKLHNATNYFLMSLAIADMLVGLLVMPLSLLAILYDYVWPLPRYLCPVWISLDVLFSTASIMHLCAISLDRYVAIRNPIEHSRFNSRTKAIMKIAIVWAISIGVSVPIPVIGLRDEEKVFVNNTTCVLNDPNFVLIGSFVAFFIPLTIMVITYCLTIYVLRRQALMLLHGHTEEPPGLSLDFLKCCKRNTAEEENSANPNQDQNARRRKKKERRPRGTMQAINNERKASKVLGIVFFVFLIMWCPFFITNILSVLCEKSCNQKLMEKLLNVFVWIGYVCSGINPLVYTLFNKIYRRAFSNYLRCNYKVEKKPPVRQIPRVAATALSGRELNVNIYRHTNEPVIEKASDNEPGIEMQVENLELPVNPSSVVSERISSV
Briefly: DRUGMATRIX: Serotonin (5-Hydroxytryptamine) 5-HT2C radioligand binding (ligand: [3H] Mesulergine). In kind it is cell membranes, CHO-K1, Membrane. Conditions: Not Active = under 50% inhibition at 10 µM.

Structures are written as SMILES.

Chain of Sodium-dependent dopamine transporter (Q01959 whole entry): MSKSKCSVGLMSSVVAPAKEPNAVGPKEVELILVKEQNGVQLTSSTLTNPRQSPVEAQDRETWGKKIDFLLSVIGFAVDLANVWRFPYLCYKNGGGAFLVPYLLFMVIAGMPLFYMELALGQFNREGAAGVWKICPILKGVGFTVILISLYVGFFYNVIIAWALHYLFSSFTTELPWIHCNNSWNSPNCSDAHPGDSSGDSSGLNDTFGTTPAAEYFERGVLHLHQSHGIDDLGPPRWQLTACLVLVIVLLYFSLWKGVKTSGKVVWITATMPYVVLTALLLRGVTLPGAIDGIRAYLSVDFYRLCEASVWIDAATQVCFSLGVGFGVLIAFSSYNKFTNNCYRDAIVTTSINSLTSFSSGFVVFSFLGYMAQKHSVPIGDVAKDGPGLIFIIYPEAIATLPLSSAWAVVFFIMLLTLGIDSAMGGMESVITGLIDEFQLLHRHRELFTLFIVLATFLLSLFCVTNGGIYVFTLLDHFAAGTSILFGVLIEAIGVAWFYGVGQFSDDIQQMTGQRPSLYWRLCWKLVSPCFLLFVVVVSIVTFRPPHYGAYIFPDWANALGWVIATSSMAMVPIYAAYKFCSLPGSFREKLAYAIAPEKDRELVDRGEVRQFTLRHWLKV
Chain of Voltage-gated inwardly rectifying potassium channel KCNH2 (Q12809 whole entry): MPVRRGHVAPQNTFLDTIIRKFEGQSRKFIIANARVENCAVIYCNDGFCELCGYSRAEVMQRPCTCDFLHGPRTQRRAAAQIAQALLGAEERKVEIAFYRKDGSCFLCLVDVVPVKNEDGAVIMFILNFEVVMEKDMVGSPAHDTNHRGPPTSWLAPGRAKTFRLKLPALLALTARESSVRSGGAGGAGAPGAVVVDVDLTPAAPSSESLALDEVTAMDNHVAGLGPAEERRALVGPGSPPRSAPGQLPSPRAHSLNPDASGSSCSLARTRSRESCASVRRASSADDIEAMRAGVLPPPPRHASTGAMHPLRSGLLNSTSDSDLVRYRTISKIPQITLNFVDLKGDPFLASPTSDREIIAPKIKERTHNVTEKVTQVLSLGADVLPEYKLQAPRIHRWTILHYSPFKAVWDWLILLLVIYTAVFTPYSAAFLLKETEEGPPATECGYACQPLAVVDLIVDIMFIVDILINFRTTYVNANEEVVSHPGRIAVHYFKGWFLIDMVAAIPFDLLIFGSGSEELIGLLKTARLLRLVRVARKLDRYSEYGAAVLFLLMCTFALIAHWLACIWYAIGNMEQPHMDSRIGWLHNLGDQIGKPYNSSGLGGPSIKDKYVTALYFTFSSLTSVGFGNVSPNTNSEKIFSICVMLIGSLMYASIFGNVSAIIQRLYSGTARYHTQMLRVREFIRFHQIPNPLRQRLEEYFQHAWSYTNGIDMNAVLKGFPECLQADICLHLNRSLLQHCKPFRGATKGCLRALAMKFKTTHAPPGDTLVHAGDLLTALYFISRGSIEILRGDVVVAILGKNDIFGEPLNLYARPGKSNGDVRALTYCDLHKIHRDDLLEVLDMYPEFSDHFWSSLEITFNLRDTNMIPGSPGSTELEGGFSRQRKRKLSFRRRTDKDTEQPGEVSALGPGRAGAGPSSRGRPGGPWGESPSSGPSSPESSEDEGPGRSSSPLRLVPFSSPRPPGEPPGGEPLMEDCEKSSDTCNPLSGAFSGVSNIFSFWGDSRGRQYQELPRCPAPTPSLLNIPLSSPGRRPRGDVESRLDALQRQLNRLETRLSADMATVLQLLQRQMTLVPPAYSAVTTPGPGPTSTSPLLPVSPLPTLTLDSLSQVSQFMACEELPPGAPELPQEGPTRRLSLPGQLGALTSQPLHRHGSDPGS

In the case of `CCOC(=O)[C@H](CCc1ccccc1)N[C@@H](C)C(=O)N1Cc2ccccc2C[C@H]1C(=O)O`, the IC50 entry in data set [1], in data set [2], in data set [3], in data set [4], in data set [5] and in data set [6] was “Not Active” in each case. For the same molecule, the IC50 result in data set [7] (cho-k1) was “Not Active”. Further, in data set [6], the Ki entry is “Not Active”.

Turning to `Clc1cc2c(cc1Cl)Oc1cc(Cl)c(Cl)cc1O2` [2,3,7,8-TETRACHLORODIBENZO-P-DIOXIN], the IC50 entry in data set [1], in data set [2], in data set [3], in data set [4], in data set [5] and in data set [6] was “Not Active” throughout. Besides, the IC50 entry in data set [7] (cho-k1) is “Not Active”. Moreover, the Ki entry in data set [6] was “Not Active”.

With `C=C1/C(=C\C=C2/CCC[C@]3(C)[C@@H]([C@H](C)CCCC(C)C)CC[C@@H]23)C[C@@H](O)C[C@@H]1O` [ALFACALCIDOL], the IC50 result in data set [1], in data set [2], in data set [3], in data set [4], in data set [5] and in data set [6] was “Not Active” each time. Further, the IC50 entry in data set [7] (cho-k1) is reported as “Not Active”. Also, the Ki result in data set [6] is “Not Active”.

Turning to `CCCCCC[C@H]1C(=O)O[C@H](C)[C@H](NC(=O)c2cccc(NC=O)c2O)C(=O)O[C@@H](C)[C@@H]1OC(=O)CC(C)C` [ANTIMYCIN A], the IC50 result in data set [1], in data set [2], in data set [3], in data set [4], in data set [5] and in data set [6] was “Not Active” each time. The IC50 result in data set [7] (cho-k1) is on record as “Not Active”. Besides, the Ki entry in data set [6] was “Not Active”.

Turning to `C[C@@H]1CC[C@H]2[C@@H](C)C(=O)O[C@@H]3O[C@@]4(C)CC[C@@H]1[C@]32OO4` [ARTEMISININ], the IC50 entry in data set [1], in data set [2], in data set [3], in data set [4], in data set [5] and in data set [6] was “Not Active” throughout. Besides, in data set [7] (cho-k1), the IC50 entry is listed as “Not Active”. Further, the inhibitory constant (Ki) entry in data set [6] is “Not Active”.

Regarding `CO[C@H]1[C@@H](O)[C@H](N)[C@@H](O[C@H]2O[C@H]([C@H](C)N)CC[C@H]2N)[C@H](O)[C@@H]1N(C)C(=O)CN` [ASTROMICIN], the IC50 result in data set [1], in data set [2], in data set [3], in data set [4], in data set [5] and in data set [6] was “Not Active” each time. Besides, in data set [7] (cho-k1), the IC50 result is “Not Active”. In addition, the Ki entry in data set [6] was “Not Active”.

`[N-]=[N+]=CC(=O)OC[C@H](N)C(=O)O` [AZASERINE]: the IC50 entry in data set [1], in data set [2], in data set [3], in data set [4], in data set [5] and in data set [6] was “Not Active” each time. For the same molecule, the IC50 result in data set [7] (cho-k1) was “Not Active”. In addition, the Ki result in data set [6] is “Not Active”.

Take `CC[C@H]1OC(=O)[C@H](C)[C@@H](O[C@H]2C[C@@](C)(OC)[C@@H](O)[C@H](C)O2)[C@H](C)[C@@H](O[C@@H]2O[C@H](C)C[C@H](N(C)C)[C@H]2O)[C@](C)(O)C[C@@H](C)CN(C)[C@H](C)[C@@H](O)[C@]1(C)O` [AZITHROMYCIN]: the IC50 entry in data set [1], in data set [2], in data set [3], in data set [4], in data set [5] and in data set [6] was “Not Active” in each case. Moreover, the IC50 result in data set [7] (cho-k1) is recorded as “Not Active”. The Ki entry in data set [6] is recorded as “Not Active”.

As for `CC(C)(C)c1ccc(S(=O)(=O)/C=C/C#N)cc1` [BAY-11-7085], the IC50 entry in data set [1], in data set [2], in data set [3], in data set [4], in data set [5] and in data set [6] was “Not Active” each time. Further, the IC50 entry in data set [7] (cho-k1) is given as “Not Active”. Further, in data set [6], the Ki entry is “Not Active”.

As for `CCc1oc2ccccc2c1C(=O)c1cc(Br)c(O)c(Br)c1` [BENZBROMARONE], the IC50 entry in data set [1], in data set [2], in data set [3], in data set [4], in data set [6] and in data set [7] (cho-k1) was “Not Active” each time. Further, the Ki result in data set [5] and in data set [6] was “Not Active” throughout.

Consider `O=c1cc(-c2ccccc2)oc2ccc3ccccc3c12` [BETA-NAPHTHOFLAVONE], for which the IC50 result in data set [1], in data set [2], in data set [3], in data set [4], in data set [5] and in data set [6] was “Not Active” throughout. For the same molecule, the IC50 entry in data set [7] (cho-k1) was “Not Active”. Moreover, in data set [6], the Ki entry is “Not Active”.

Turning to `CC(C)C[C@H]1C(=O)N2CCC[C@H]2[C@]2(O)O[C@](NC(=O)[C@@H]3C=C4c5cccc6[nH]c(Br)c(c56)C[C@H]4N(C)C3)(C(C)C)C(=O)N12` [BROMOCRIPTINE], the IC50 result in data set [1], in data set [2], in data set [3], in data set [4], in data set [5] and in data set [6] was “Not Active” each time. Further, the half-maximal inhibitory concentration (IC50) in data set [7] (read-out: IC50) is 532 nM. Besides, the Ki entry in data set [6] was “Not Active”; in data set [7] (read-out: Ki), 278 nM.

Regarding `CS(=O)(=O)OCCCCOS(C)(=O)=O` [BUSULFAN], the IC50 result in data set [1], in data set [2], in data set [3], in data set [4], in data set [5] and in data set [6] was “Not Active” in each case. The IC50 result in data set [7] (cho-k1) is reported as “Not Active”. The Ki entry in data set [6] is reported as “Not Active”.

With `O=C(/C=C/c1ccc(O)c(O)c1)OCCc1ccccc1` [CAFFEIC ACID PHENETHYL ESTER], the IC50 entry in data set [1], in data set [2], in data set [3], in data set [4], in data set [5] and in data set [6] was “Not Active” in each case. Besides, the IC50 result in data set [7] (cho-k1) is recorded as “Not Active”. For the same molecule, the Ki result in data set [6] is recorded as “Not Active”.

With `COc1cc(CNC(=O)CCCC/C=C/C(C)C)ccc1O` [CAPSAICIN], the IC50 entry in data set [1], in data set [2], in data set [3], in data set [4], in data set [5] and in data set [6] was “Not Active” in each case. In addition, the IC50 entry in data set [7] (cho-k1) was “Not Active”. Moreover, the Ki entry in data set [6] is on record as “Not Active”.

Consider `NC(=O)N1c2ccccc2C=Cc2ccccc21` [CARBAMAZEPINE], for which the IC50 result in data set [1], in data set [2], in data set [3], in data set [4], in data set [5] and in data set [6] was “Not Active” throughout. In data set [7] (cho-k1), the IC50 entry is “Not Active”. Besides, the inhibition constant (Ki) result in data set [6] was “Not Active”.

In the case of `CCOC(=O)n1ccn(C)c1=S` [CARBIMAZOLE], the IC50 result in data set [1], in data set [2], in data set [3], in data set [4], in data set [5] and in data set [6] was “Not Active” each time. The IC50 result in data set [7] (cho-k1) is listed as “Not Active”. The Ki entry in data set [6] is reported as “Not Active”.

Source of the values: ChEMBL document CHEMBL1909046, “DrugMatrix in vitro pharmacology data”.
